“And” between values parts separate entries of the source, which are not always exact repeats. Identical values can stand only once.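 All cell lines were grown in 96-well plates and treated with compound for 48 hours. The concentration for 50% growth inhibition is given as GI50. TGI: concentration producing complete growth inhibition.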
Experiments:
Test in all cases: growth of human tumour cells (NCI), 48 h
MOLT-4 leukemia = tested on: MOLT-4 leukemia
OVCAR-3 ovarian = tested on: OVCAR-3 ovarian
CAKI-1 renal = tested on: CAKI-1 renal
A498 renal = tested on: A498 renal
TK-10 renal = tested on: TK-10 renal
SK-OV-3 ovarian = tested on: SK-OV-3 ovarian
SF-268 CNS = tested on: SF-268 CNS
SK-MEL-28 melanoma = tested on: SK-MEL-28 melanoma
SN12C renal = tested on: SN12C renal
OVCAR-4 ovarian = tested on: OVCAR-4 ovarian

Row | SMILES | GI50 (MOLT-4 leukemia) | TGI (MOLT-4 leukemia) | GI50 (OVCAR-3 ovarian) | TGI (OVCAR-3 ovarian) | GI50 (CAKI-1 renal) | TGI (CAKI-1 renal) | GI50 (A498 renal) | TGI (A498 renal) | GI50 (TK-10 renal) | TGI (TK-10 renal) | GI50 (SK-OV-3 ovarian) | TGI (SK-OV-3 ovarian) | GI50 (SF-268 CNS) | TGI (SF-268 CNS) | GI50 (SK-MEL-28 melanoma) | TGI (SK-MEL-28 melanoma) | GI50 (SN12C renal) | TGI (SN12C renal) | GI50 (OVCAR-4 ovarian) | TGI (OVCAR-4 ovarian)
1 | CC1CCCc2c1nn(C(=O)/C=C(\N)c1ccccc1)c2N (stereo not drawn) | 5.16 µM | 84.9 µM | 5.61 µM | 32.6 µM | 4.11 µM | 15.4 µM | 9.64 µM | 90.5 µM | 28.9 µM | > 100 µM | 14.5 µM | > 100 µM | 9.61 µM | > 100 µM | 17.9 µM | > 100 µM | 8.13 µM | > 100 µM | 12.8 µM | > 100 µM
2 | O=S(=O)(CCOCc1ccc(-c2ccc3ncnc(Nc4ccc(OCc5cccc(F)c5)c(Cl)c4)c3c2)o1)c1ccccc1 | > 25 µM | > 25 µM | > 25 µM | > 25 µM | 0.831 µM | > 25 µM | > 7 µM | > 25 µM | 1.17 µM | > 25 µM | 0.143 µM | > 25 µM | > 25 µM | > 25 µM | > 25 µM | > 25 µM | > 25 µM | > 25 µM | > 25 µM | > 25 µM
3 | CCOC(=O)c1ccc(N[C@@H]2c3cc4c(cc3C(C3=CC(=O)C(=O)C(OC)=C3)[C@H]3C(=O)OCC32)OCO4)cc1 (stereo partly drawn) | – | > 37.7 µM | – | 31.7 µM | – | 11.5 µM | – | 13 µM | – | 38.9 µM | – | 6.77 µM | – | 10.4 µM | – | 40.5 µM | – | > 21.1 µM | – | > 83 µM
4 | O=C1C=C(O)c2[nH]c(=O)ccc2C1=O | – | > 100 µM | – | > 100 µM | – | > 100 µM | – | > 100 µM | – | > 100 µM | – | > 100 µM | – | > 100 µM | – | > 100 µM | – | > 100 µM | – | 82.5 µM
5 | O=C(/C=C/c1ccccc1)CC(c1ccccc1)N1CCOCC1 (stereo not drawn) | 3.12 µM | 9.87 µM | 3.71 µM | 11.6 µM | 3.38 µM | 12.9 µM | 12.9 µM | 26.2 µM | 8.63 µM | 24.5 µM | 14.4 µM | 30.7 µM | 5.07 µM | 19.3 µM | 13.8 µM | 30 µM | 4.25 µM | 14.8 µM | 9.68 µM | 23.3 µM
6 | Cc1ccc2c(c1)Sc1ccc(N=NN(C)C)cc1N2C | – | > 100 µM | – | > 100 µM | – | > 100 µM | – | > 100 µM | – | > 100 µM | – | > 100 µM | – | > 100 µM | – | > 100 µM | – | > 100 µM | – | > 100 µM
7 | Cl[Si]1(Cl)Oc2ccccc2O[Si](Cl)(Cl)Oc2ccccc2O1 | – | 42.8 µM | – | > 100 µM | – | 97.5 µM | – | > 100 µM | – | > 100 µM | – | > 100 µM | – | > 100 µM | – | > 100 µM | – | > 100 µM | – | 24.7 µM
8 | CCN(CC)CCNC(=O)c1c(C)[nH]c(/C=C2\C(=O)Nc3ccc(F)cc32)c1C | 1.1 µM and 2.73 µM and 1.7 µM | > 10 µM and 20 µM and 9.05 µM | > 10 µM and 3.41 µM and 3.33 µM | > 10 µM and 6.34 µM and 7.54 µM | 1.07 µM and 1.04 µM and 0.794 µM | > 10 µM and 20 µM and 6.77 µM | > 10 µM and 2.21 µM and 2.84 µM | > 10 µM and 4.83 µM and 15.4 µM | 2.78 µM and 2.01 µM and 5.52 µM | > 10 µM and 5.81 µM and 20.9 µM | 2.44 µM and 2.26 µM and 3.51 µM | > 10 µM and 5.43 µM and 19.6 µM | > 10 µM and 2.73 µM and 4.57 µM | > 10 µM and 6.09 µM and 16.9 µM | 2.47 µM and 3 µM and 1.57 µM | > 10 µM and 5.89 µM and 3.31 µM | 1.95 µM and 1.24 µM and 2.23 µM | > 10 µM and 20 µM and 16.2 µM | > 10 µM and 2.41 µM and 2.76 µM | > 10 µM and 9.23 µM and 15 µM
9 | CC1(C)CC[C@H](C2=CC(=O)c3c(O)ccc(O)c3C2=O)O1 | 0.487 µM and 0.16 µM and 0.137 µM | – | 2.23 µM and 1.64 µM and 0.669 µM | 4.87 µM and 3.02 µM and 1.61 µM | 1.11 µM and 1.38 µM and 0.48 µM | 2.44 µM and 2.72 µM and 1.17 µM | 6.81 µM and 2.57 µM and 1.71 µM | 13.6 µM and 6.05 µM and 3.58 µM | 1.5 µM and 1.72 µM and 0.604 µM | 3.98 µM and 3.1 µM and 1.66 µM | 4.81 µM | 18.8 µM and 13.7 µM | 3.54 µM and 2.19 µM and 1.01 µM | 10.3 µM and 6.27 µM and 6.67 µM | 2.17 µM and 0.979 µM and 0.571 µM | 5.43 µM and 2.15 µM and 1.16 µM | 2.6 µM and 1.51 µM and 0.382 µM | – | 1.86 µM and 0.311 µM and 0.192 µM | 4.3 µM and 1.63 µM and 0.505 µM
10 | COC(=O)/C(C#N)=C1\CCC(C(=O)OC)N1C (stereo not drawn) | – | > 100 µM | – | > 100 µM | – | > 100 µM | – | > 100 µM | – | > 100 µM | – | > 100 µM | – | > 100 µM | – | > 100 µM | – | > 100 µM | – | > 100 µM
11 | Cc1ncc(C(=O)Nc2ccc(CN3CCN(C)CC3)c(C(F)(F)F)c2)cc1C#Cc1cnc(NC2CC2)c2ncccc12 | 0.519 µM | 1.17 µM | 0.693 µM | 1.28 µM | 1.66 µM | 3.47 µM | 1.78 µM | 5.56 µM | 0.78 µM | 1.31 µM | 3.39 µM | 7.66 µM | 0.755 µM | 1.48 µM | 0.641 µM | 1.18 µM | 1.67 µM | 3.32 µM | 1.49 µM | 3.27 µM
12 | O=C/C(=C(/Cl)c1ccc(O)cc1)c1ccccc1 | – | > 69.4 µM | – | 37.5 µM | – | > 56.8 µM | – | > 100 µM | – | > 56 µM | – | 85.8 µM | – | 77.8 µM | – | 41.9 µM | – | > 61.3 µM | – | > 54 µM
13 | O=S1(=O)NCCCN1CCNc1nccc(-c2c(-c3cccc(O)c3)nc3sccn23)n1 | 22.9 µM | > 77.6 µM | 19.4 µM | > 100 µM | 17.4 µM | > 94 µM | 15.5 µM | 45.9 µM | 33.6 µM | > 100 µM | 5.93 µM | 63.8 µM | 24.4 µM | > 100 µM | 0.245 µM | > 100 µM | 10.2 µM | > 100 µM | 17.5 µM | > 96.1 µM
14 | NC(N)=NS(=O)(=O)c1ccc(NC(=O)c2cccc3c(Nc4ccc(S(N)(=O)=O)cc4)c4ccccc4nc23)cc1 | – | > 100 µM | – | > 100 µM | – | > 100 µM | – | > 100 µM | – | > 100 µM | – | > 100 µM | – | > 100 µM | – | > 100 µM | – | > 100 µM | – | > 100 µM
15 | NC(=O)C1(N2CCCCC2)CCN(CCCC(=O)c2ccc(F)cc2)CC1 | 1.16 µM | > 81.6 µM | 0.117 µM | 1.58 µM | 26.6 µM | > 100 µM | 2.72 µM | 11.4 µM | > 26 µM | > 100 µM | 3.26 µM | 35.3 µM | 2.6 µM | > 70.9 µM | 1.08 µM | > 100 µM | 5.24 µM | > 100 µM | 8.72 µM | > 100 µM
